US11540518B2, “Fungicidal oxadiazoles” (FMC Corporation, priority 2017, dated 2023)

tested on: Phakopsora pachyrhizi; assay: Test A: Asian soybean rust control on soybean seedlings; assay type: in vivo; conditions: 10 ppm, sprayed to run-off on soybean seedlings, inoculated the following day; 100 = 100% disease control, 0 = no control
Text: General protocol for preparing test suspensions for Tests A-C: the test compounds were first dissolved in acetone in an amount equal to 3% of the final volume and then suspended at the desired concentration (in ppm) in acetone and purified water (50/50 mix by volume) containing 250 ppm of the surfactant PEG400 (polyhydric alcohol esters). The resulting test suspensions were then used in Tests A-C.
The test solution was sprayed to the point of run-off on soybean seedlings. The following day the seedlings were inoculated with a spore suspension of Phakopsora pachyrhizi (the causal agent of Asian soybean rust) and incubated in a saturated atmosphere at 22° C. for 24 h, and then moved to a growth chamber at 22° C. for 8 days, after which time visual disease ratings were made.
Results for Tests A-C are given in Table A. In the Table, a rating of 100 indicates 100% disease control and a rating of 0 indicates no disease control (relative to the controls). A dash (-) indicates the compound was not tested.

Question: For `CNC(=O)OCc1ccc(-c2noc(C(F)(F)F)n2)s1` [Compound 38], which “Test A disease control rating” value is on record?
Answer: 94%

Question: For `CCOC(=O)NC(=O)OCCc1ccc(-c2noc(C(F)(F)F)n2)cc1` [Compound 78], which “Test A disease control rating” value is on record?
Answer: 100%

Question: With `CCNC(=O)OC(COC)Cc1ccc(-c2noc(C(F)(F)F)n2)cc1` (stereo not drawn) [Compound 75] as the compound, how does the “Test A disease control rating” value read?
Answer: 100%

Question: How did the “Test A disease control rating” value turn out when `C#CCCNC(=O)OCc1ccc(-c2noc(C(F)(F)F)n2)cc1` [Compound 33] was run?
Answer: 100%

Question: Which “Test A disease control rating” value does the source give for `CC(OC(=O)N(C)C)c1ccc(-c2noc(C(F)(F)F)n2)cc1` (stereo not drawn) [Compound 72] here?
Answer: 100%

Question: How did the “Test A disease control rating” value turn out when `CCOC(=O)NC(=O)OCc1ccc(-c2noc(C(F)(F)F)n2)cc1` [Compound 79] was run?
Answer: 100%

Question: `C#CCNC(=O)OC(C)c1ccc(-c2noc(C(F)(F)F)n2)cc1` (stereo not drawn) [Compound 76] was tested. Which “Test A disease control rating” value did it give?
Answer: 100%

Question: For `CC(OC(=O)NC1CC1)c1ccc(-c2noc(C(F)(F)F)n2)cc1` (stereo not drawn) [Compound 77], which “Test A disease control rating” value is on record?
Answer: 100%

same assay, conditions: 250 ppm, sprayed to run-off on soybean seedlings, inoculated the following day; 100 = 100% disease control, 0 = no control

Question: How did the “Test A disease control rating” value turn out when `CNC(=O)OC(c1ccccc1)c1ccc(-c2noc(C(F)(F)F)n2)cc1` (stereo not drawn) [Compound 137] was run?
Answer: 100%

Question: For `CNC(=O)OC(c1ccc(C)cc1)c1ccc(-c2noc(C(F)(F)F)n2)cc1` (stereo not drawn) [Compound 144], which “Test A disease control rating” value is on record?
Answer: 100%

Question: How did the “Test A disease control rating” value turn out when `Cc1ccc(C(OC(N)=O)c2ccc(-c3noc(C(F)(F)F)n3)cc2)cc1` (stereo not drawn) [Compound 143] was run?
Answer: 100%

Question: How did the “Test A disease control rating” value turn out when `NC(=O)OC(c1ccc(-c2noc(C(F)(F)F)n2)cc1)c1cccc(F)c1` (stereo not drawn) [Compound 131] was run?
Answer: 100%

Question: `C=CCNC(=O)OC(c1ccccc1)c1ccc(-c2noc(C(F)(F)F)n2)cc1` (stereo not drawn) [Compound 138] was tested. Which “Test A disease control rating” value did it give?
Answer: 100%

Question: With `CCNC(=O)OCc1cccc(-c2noc(C(F)(F)F)n2)c1` [Compound 95] as the compound, how does the “Test A disease control rating” value read?
Answer: 99%

Question: With `CCCNC(=O)OCc1ccc(-c2noc(C(F)(F)F)n2)cc1` [Compound 10] as the compound, how does the “Test A disease control rating” value read?
Answer: 100%

Question: Which “Test A disease control rating” value does the source give for `CCNC(=O)OC(c1ccc(-c2noc(C(F)(F)F)n2)cc1)c1cccc(F)c1` (stereo not drawn) [Compound 133] here?
Answer: 100%

tested on: Zymoseptoria tritici; assay: Test B: wheat leaf blotch control on wheat seedlings; assay type: in vivo; conditions: 10 ppm, sprayed to run-off on wheat seedlings, inoculated the following day; 100 = 100% disease control, 0 = no control
Text: (§1) General protocol for preparing test suspensions for Tests A-C: the test compounds were first dissolved in acetone in an amount equal to 3% of the final volume and then suspended at the desired concentration (in ppm) in acetone and purified water (50/50 mix by volume) containing 250 ppm of the surfactant PEG400 (polyhydric alcohol esters). The resulting test suspensions were then used in Tests A-C. The test solution was sprayed to the point of run-off on wheat seedlings. The following day the seedlings were inoculated with a spore suspension of Zymoseptoria tritici (the causal agent of wheat leaf blotch) and incubated in a saturated atmosphere at 24° C. for 48 h, and then moved to a growth chamber at 20° C. for 17 days, after which time disease ratings were made. Results for Tests A-C are given in Table A. In the Table, a rating of 100 indicates 100% disease control and a rating of 0 indicates no disease control (relative to the controls). A dash (-) indicates the compound was not tested.

Question: With `CCOC(=O)NC(=O)OCCc1ccc(-c2noc(C(F)(F)F)n2)cc1` [Compound 78] as the compound, how does the “Test B disease control rating” value read?
Answer: 95%

Question: For `CCOC(=O)NC(=O)OCc1ccc(-c2noc(C(F)(F)F)n2)cc1` [Compound 79], which “Test B disease control rating” value is on record?
Answer: 98%

Question: For `CC(OC(=O)NC1CC1)c1ccc(-c2noc(C(F)(F)F)n2)cc1` (stereo not drawn) [Compound 77], which “Test B disease control rating” value is on record?
Answer: 0%

same assay, conditions: 250 ppm (incl. values marked * = tested at 250 ppm), sprayed to run-off on wheat seedlings, inoculated the following day; 100 = 100% disease control, 0 = no control

Question: Which “Test B disease control rating” value does the source give for `CNC(=O)OC(c1ccccc1)c1ccc(-c2noc(C(F)(F)F)n2)cc1` (stereo not drawn) [Compound 137] here?
Answer: 70%

Question: With `CNC(=O)OC(c1ccc(C)cc1)c1ccc(-c2noc(C(F)(F)F)n2)cc1` (stereo not drawn) [Compound 144] as the compound, how does the “Test B disease control rating” value read?
Answer: 0%

Question: With `CNC(=O)OCc1ccc(-c2noc(C(F)(F)F)n2)s1` [Compound 38] as the compound, how does the “Test B disease control rating” value read?
Answer: 80* %

Question: Which “Test B disease control rating” value does the source give for `Cc1ccc(C(OC(N)=O)c2ccc(-c3noc(C(F)(F)F)n3)cc2)cc1` (stereo not drawn) [Compound 143] here?
Answer: 69%

Question: For `NC(=O)OC(c1ccc(-c2noc(C(F)(F)F)n2)cc1)c1cccc(F)c1` (stereo not drawn) [Compound 131], which “Test B disease control rating” value is on record?
Answer: 96%

Question: `C=CCNC(=O)OC(c1ccccc1)c1ccc(-c2noc(C(F)(F)F)n2)cc1` (stereo not drawn) [Compound 138] was tested. Which “Test B disease control rating” value did it give?
Answer: 99%

Question: Which “Test B disease control rating” value does the source give for `CCNC(=O)OCc1cccc(-c2noc(C(F)(F)F)n2)c1` [Compound 95] here?
Answer: 3%

Question: How did the “Test B disease control rating” value turn out when `CCNC(=O)OC(COC)Cc1ccc(-c2noc(C(F)(F)F)n2)cc1` (stereo not drawn) [Compound 75] was run?
Answer: 97* %

Question: With `C#CCCNC(=O)OCc1ccc(-c2noc(C(F)(F)F)n2)cc1` [Compound 33] as the compound, how does the “Test B disease control rating” value read?
Answer: 0* %

Question: With `CCCNC(=O)OCc1ccc(-c2noc(C(F)(F)F)n2)cc1` [Compound 10] as the compound, how does the “Test B disease control rating” value read?
Answer: 97%

Question: With `CCNC(=O)OC(c1ccc(-c2noc(C(F)(F)F)n2)cc1)c1cccc(F)c1` (stereo not drawn) [Compound 133] as the compound, how does the “Test B disease control rating” value read?
Answer: 99%

Question: How did the “Test B disease control rating” value turn out when `CC(OC(=O)N(C)C)c1ccc(-c2noc(C(F)(F)F)n2)cc1` (stereo not drawn) [Compound 72] was run?
Answer: 0* %

Question: How did the “Test B disease control rating” value turn out when `C#CCNC(=O)OC(C)c1ccc(-c2noc(C(F)(F)F)n2)cc1` (stereo not drawn) [Compound 76] was run?
Answer: 0* %

tested on: Puccinia recondita f. sp. tritici; assay: Test C: wheat leaf rust control on wheat seedlings; assay type: in vivo; conditions: 10 ppm, sprayed to run-off on wheat seedlings, inoculated the following day; 100 = 100% disease control, 0 = no control
Text: as §1, with “Puccinia recondita f. sp.” for “Zymoseptoria”, “rust)” for “blotch)”, “20°” for “24°”, “24” for “48”, “6” for “17”

Question: `CNC(=O)OCc1ccc(-c2noc(C(F)(F)F)n2)s1` [Compound 38] was tested. Which “Test C disease control rating” value did it give?
Answer: 96%

Question: Which “Test C disease control rating” value does the source give for `CCOC(=O)NC(=O)OCCc1ccc(-c2noc(C(F)(F)F)n2)cc1` [Compound 78] here?
Answer: 91%

Question: Which “Test C disease control rating” value does the source give for `CCNC(=O)OC(COC)Cc1ccc(-c2noc(C(F)(F)F)n2)cc1` (stereo not drawn) [Compound 75] here?
Answer: 91%

Question: Which “Test C disease control rating” value does the source give for `C#CCCNC(=O)OCc1ccc(-c2noc(C(F)(F)F)n2)cc1` [Compound 33] here?
Answer: 100%

Question: With `CC(OC(=O)N(C)C)c1ccc(-c2noc(C(F)(F)F)n2)cc1` (stereo not drawn) [Compound 72] as the compound, how does the “Test C disease control rating” value read?
Answer: 55%

Question: `CCOC(=O)NC(=O)OCc1ccc(-c2noc(C(F)(F)F)n2)cc1` [Compound 79] was tested. Which “Test C disease control rating” value did it give?
Answer: 97%

Question: Which “Test C disease control rating” value does the source give for `C#CCNC(=O)OC(C)c1ccc(-c2noc(C(F)(F)F)n2)cc1` (stereo not drawn) [Compound 76] here?
Answer: 99%

Question: Which “Test C disease control rating” value does the source give for `CC(OC(=O)NC1CC1)c1ccc(-c2noc(C(F)(F)F)n2)cc1` (stereo not drawn) [Compound 77] here?
Answer: 92%

same assay, conditions: 250 ppm, sprayed to run-off on wheat seedlings, inoculated the following day; 100 = 100% disease control, 0 = no control

Question: For `CNC(=O)OC(c1ccccc1)c1ccc(-c2noc(C(F)(F)F)n2)cc1` (stereo not drawn) [Compound 137], which “Test C disease control rating” value is on record?
Answer: 100%

Question: How did the “Test C disease control rating” value turn out when `CNC(=O)OC(c1ccc(C)cc1)c1ccc(-c2noc(C(F)(F)F)n2)cc1` (stereo not drawn) [Compound 144] was run?
Answer: 100%

Question: `Cc1ccc(C(OC(N)=O)c2ccc(-c3noc(C(F)(F)F)n3)cc2)cc1` (stereo not drawn) [Compound 143] was tested. Which “Test C disease control rating” value did it give?
Answer: 100%

Question: With `NC(=O)OC(c1ccc(-c2noc(C(F)(F)F)n2)cc1)c1cccc(F)c1` (stereo not drawn) [Compound 131] as the compound, how does the “Test C disease control rating” value read?
Answer: 100%

Question: Which “Test C disease control rating” value does the source give for `C=CCNC(=O)OC(c1ccccc1)c1ccc(-c2noc(C(F)(F)F)n2)cc1` (stereo not drawn) [Compound 138] here?
Answer: 100%

Question: Which “Test C disease control rating” value does the source give for `CCNC(=O)OCc1cccc(-c2noc(C(F)(F)F)n2)c1` [Compound 95] here?
Answer: 100%

Question: With `CCCNC(=O)OCc1ccc(-c2noc(C(F)(F)F)n2)cc1` [Compound 10] as the compound, how does the “Test C disease control rating” value read?
Answer: 100%

Question: With `CCNC(=O)OC(c1ccc(-c2noc(C(F)(F)F)n2)cc1)c1cccc(F)c1` (stereo not drawn) [Compound 133] as the compound, how does the “Test C disease control rating” value read?
Answer: 100%
